Patent US11236354B2, “Glyphosate-n-acetyltransferase (GLYAT) sequences and methods of use” (PIONEER HI-BRED INTERNATIONAL, INC., priority 2013, dated 2022)

Molecular target: GLYAT variant SEQ ID NO:6 (derived from SEQ ID NO:1 and 2) (Bacillus licheniformis, UniProt Q65LG7, A28V/D131E/E119K/E14D/E65Q/E67K/E68K/G37R/I132T/I135A/I15L/I19V/I53V/I91V/K101R/K144R/K58Q/L105M/L106I/L26I/L36T/L97I/M75A/R47G/R92K/T89S/V114A/V4I/Y130F/Y45F/Y46C)
Test: Substrate saturation kinetic analysis of purified GLYAT
Conditions: pH 7.0
Description: Cells were lysed with BPER (Pierce) containing 1 mM dithiothreitol, 0.2 mg/ml lysozyme, 2 mg/ml protease inhibitor cocktail (Sigma bacterial cell cocktail, P8465) and endonuclease. Lysate supernatants were passed through a column of NHS-activated Agarose (Thermo, #26197) derivatized with coenzyme A. Columns were washed with 25 mM Hepes, pH 7, containing progressively higher concentrations of KCl, then eluted with 25 mM Hepes, 100 mM KCl, 10% ethylene glycol and 1 mM acetyl CoA. Purity as evaluated by polyacrylamide gel electrophoresis was deemed consistently high enough to be assumed to be 100%. Protein concentration was determined with the Bradford assay using a large-scale lot of produced GLYAT protein as standard.
Kinetic parameters for various substrates were obtained using a range of seven substrate concentrations plus a blank containing none of the varied substrate. The non-varied substrate was present at a saturating concentration. Six-microliter aliquots of 50-fold concentrated stock solutions of the varied substrate were placed in a 96-well assay plate (Greiner BioOne UV-Star). Reactions were started with the addition of 294 ul of 25 mM Hepes, pH 7.0, 100 mM KCL, 10% ethylene glycol, the non-varied substrate and 10 to 200 nM enzyme. Absorbance was monitored for one minute with a Spectramax 384 Plus plate reader (Molecular Devices). If the amino acid present at position 30 (29 if alanine is absent at position 2) was cysteine, absorbance was monitored at 235 nm, which directly detects cleavage of the sulfoester bond of acetyl CoA. If the amino acid present at position 30 (29 if alanine is absent at position 2) was isoleucine, 0.5 mM 5,5′-dithiobis-(2-nitrobenzoic acid), which reacts with the coenzyme A thiol generated in the enzyme catalyzed reaction, was included in the reaction mix and absorbance was monitored at 412 nm. Initial rates were processed by the Softmax software to obtain kinetic parameters, using the double-reciprocal transformation.

N[C@@H](CC(=O)O)C(=O)O [aspartate]
Asp as % of glyph (kcat/KM asp / kcat/KM glyph): 0.052%
